Like-named read-outs stand apart in the source and are kept apart here.
What was measured:
STZ diabetic mouse model = assay: STZ diabetic mouse model, inflammation and fibrosis (Example 12); assay type: in vivo; conditions: 1 mg/kg subcutaneously by minipump, 4 weeks
Protocol: Mice were divided into two groups, all mice were treated with STZ (150 mg/kg) 1 week before starting treatment. Prior to STZ treatment, urine and blood samples were taken and a blood glucose test undertaken. Similarly, before treatment began, one week post STZ administration, urine and blood samples were taken and blood glucose was assessed. The two treatment groups were then treated with either vehicle only or SEQ ID NO: 2 (1 mg/kg) subcutaneously by minipump. The mice were then monitored for 4 weeks before sacrifice. Monitoring included assessing the weight of each animal every day, and taking urine and blood samples and measuring blood glucose at 2 weeks post treatment and immediately before sacrifice.

ACE2 = target: T1, ACE2 (Homo sapiens, UniProt Q9BYF1); assay: ACE2 enzyme kinetics study with QFS (Example 5); assay type: biochemical; conditions: rhACE2 0.1 ng/μL, ACE2 QFS 0-100 μM; pre-incubation 1 h at 37° C.
T1 construct: purchased R & D systems 933-ZN-010
Protocol: (§1) Plate reader-based enzyme assays were performed using a quenched fluorescent substrate (QFS) in a 96-well format using a SpectraMAX M4 Microplate reader (Molecular Devices). The increase in fluorescence following addition of QFS (40 μM) was taken as evidence of enzyme activity. Fluorescence was monitored over 2 h at 37° C. using κEx=320 nm and λEm=405 nm. Assays were conducted in black 96-well plates. Specific enzyme activity was expressed as a rate of substrate cleavage calculated using a standard curve of 7-methoxy-coumarin-4-acetic acid.
In all plate reader-based enzyme assays using QFS, the reaction rate (μmol of substrate cleaved/min) was calculated using linear regression analysis (GraphPad Prism software version 8.01). The reaction rates calculated were used to generate the enzyme kinetic parameters Vmax and Km through non-linear regression analysis (GraphPad Prism software, version 8.01; Michaelis-Menten equation). Where indicated, enzyme activity in the presence of peptide was expressed as a % of the enzyme alone. Data were expressed as mean±SEM and statistical significance was determined using t-tests or one-way ANOVAs followed by Tukey's post-hoc test. P<0.05 was considered as statistically significant. In all assays conducted using 96-well plates, the reaction mixtures in each well were considered an independent experiment. […]

SARS-CoV-2 = assay type: cell-based; conditions: pre-treatment, Vero cells, 8 h
IDE = target: T2, IDE (Homo sapiens, UniProt P14735); assay: QFS assay of Aβ-degrading enzymes: IDE (Example 6); assay type: biochemical
T2 sequence (P14735 1-1019): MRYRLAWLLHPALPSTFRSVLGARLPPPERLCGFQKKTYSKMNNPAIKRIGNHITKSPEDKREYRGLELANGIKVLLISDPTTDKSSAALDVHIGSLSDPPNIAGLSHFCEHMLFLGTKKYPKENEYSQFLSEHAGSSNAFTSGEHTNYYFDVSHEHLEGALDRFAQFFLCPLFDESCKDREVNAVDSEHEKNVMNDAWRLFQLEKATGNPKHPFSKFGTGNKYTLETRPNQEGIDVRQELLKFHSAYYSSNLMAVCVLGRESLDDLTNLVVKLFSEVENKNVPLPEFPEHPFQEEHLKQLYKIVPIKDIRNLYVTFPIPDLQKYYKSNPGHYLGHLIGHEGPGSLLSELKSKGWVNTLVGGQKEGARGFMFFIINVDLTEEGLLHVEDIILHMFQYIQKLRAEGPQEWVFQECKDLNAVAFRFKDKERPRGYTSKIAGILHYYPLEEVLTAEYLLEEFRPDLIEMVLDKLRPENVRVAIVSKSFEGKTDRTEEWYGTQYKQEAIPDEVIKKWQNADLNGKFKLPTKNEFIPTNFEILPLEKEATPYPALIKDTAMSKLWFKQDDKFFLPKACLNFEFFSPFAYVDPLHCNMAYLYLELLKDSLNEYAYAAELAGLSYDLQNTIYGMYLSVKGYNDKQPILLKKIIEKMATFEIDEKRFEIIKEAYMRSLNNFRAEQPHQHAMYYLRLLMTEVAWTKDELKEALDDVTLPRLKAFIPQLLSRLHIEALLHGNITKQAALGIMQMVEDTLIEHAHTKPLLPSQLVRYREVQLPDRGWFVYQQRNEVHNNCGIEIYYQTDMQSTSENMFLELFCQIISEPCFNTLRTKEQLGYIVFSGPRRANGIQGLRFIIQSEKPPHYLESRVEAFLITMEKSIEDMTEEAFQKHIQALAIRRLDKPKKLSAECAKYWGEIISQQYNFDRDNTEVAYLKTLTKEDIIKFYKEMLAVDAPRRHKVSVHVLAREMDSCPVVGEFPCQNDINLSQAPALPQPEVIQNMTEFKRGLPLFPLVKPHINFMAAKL
Protocol: as §1
In all plate reader-based enzyme assays using QFS, the reaction rate (μmol of substrate cleaved/min) was calculated using linear regression analysis (GraphPad Prism software version 8.01). The reaction rates calculated were used to generate the enzyme kinetic parameters Vmax and Km through non-linear regression analysis (GraphPad Prism software, version 8.01; Michaelis-Menten equation). Where indicated, enzyme activity in the presence of peptide was expressed as a % of the enzyme alone. Data were expressed as mean±SEM and statistical significance was determined using t-tests or one-way ANOVAs followed by Tukey's post-hoc test. P<0.05 was considered as statistically significant. In all assays conducted using 96-well plates, the reaction mixtures in each well were considered an independent experiment.
SEQ ID NO:2 was assessed in a QFS assay against enzymes NEP, ECE1, ECE2, ACE1, ACE2, IDE and MMP-2 using the method in Example 2 and the following procedure. NEP, ACE1, ECE2 (0.05 ng/μL), ACE2, IDE (0.10 ng/μL), and ECE1 (6.4 ng/μL) were incubated with SEQ ID NO:2 (0.9-26 μM) or scrambled control (9 μM) for 1 h at 37° C. Prior to use, MMP2 (0.50 ng/μL) was activated using p-aminophenylmercuric acetate to a final concentration of 100 μM for 1 h at 37° C. Following activation, MMP2 was incubated with SEQ ID NO:2 for 1 h at 37° C. before adding the appropriate QFS.

T1 sequence (Q9BYF1 18-805): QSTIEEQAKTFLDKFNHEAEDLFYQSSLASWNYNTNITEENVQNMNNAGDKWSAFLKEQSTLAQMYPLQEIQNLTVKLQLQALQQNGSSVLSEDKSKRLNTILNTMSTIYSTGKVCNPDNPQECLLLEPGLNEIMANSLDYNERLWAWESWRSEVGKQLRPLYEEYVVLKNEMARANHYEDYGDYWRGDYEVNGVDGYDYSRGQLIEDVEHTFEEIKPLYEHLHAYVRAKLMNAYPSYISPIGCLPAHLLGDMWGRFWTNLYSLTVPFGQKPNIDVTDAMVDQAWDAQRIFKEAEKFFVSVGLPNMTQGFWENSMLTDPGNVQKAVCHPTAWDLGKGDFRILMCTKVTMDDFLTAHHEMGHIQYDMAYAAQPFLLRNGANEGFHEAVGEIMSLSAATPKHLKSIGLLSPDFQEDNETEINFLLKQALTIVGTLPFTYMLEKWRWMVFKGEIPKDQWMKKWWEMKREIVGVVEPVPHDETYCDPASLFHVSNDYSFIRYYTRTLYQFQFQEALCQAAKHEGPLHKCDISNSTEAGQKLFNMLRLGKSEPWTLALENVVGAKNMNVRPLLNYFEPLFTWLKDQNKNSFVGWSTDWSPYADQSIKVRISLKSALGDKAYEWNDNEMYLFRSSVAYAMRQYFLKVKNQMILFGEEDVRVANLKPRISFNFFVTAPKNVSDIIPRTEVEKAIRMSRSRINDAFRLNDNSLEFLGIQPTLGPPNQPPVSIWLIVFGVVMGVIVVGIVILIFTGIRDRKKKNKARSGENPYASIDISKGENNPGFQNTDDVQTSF

Substance: H-SLFELGKMIL-NH2 [SEQ ID NO:2, H2N-SLFELGKMIL-NH2]
- blood glucose compared with vehicle treated mice (STZ diabetic mouse model): lower
- kidney IL-6 expression compared with vehicle treated mice (STZ diabetic mouse model): lower
- kidney collagen I expression compared with vehicle treated mice (STZ diabetic mouse model): lower
- kidney collagen III expression compared with vehicle treated mice (STZ diabetic mouse model): lower
- vmax of rhACE2 in the presence of peptide (ACE2): 0.09±0.002 μmol substrate cleaved/min
- viral titre compared to PBS (SARS-CoV-2; 200 ng/μL): significantly reduced
- viral RNA compared to PBS (SARS-CoV-2; 400 ng/μL): significantly reduced
- viral titre compared to PBS (SARS-CoV-2; 400 ng/μL): significantly reduced
- IDE activity compared with respective enzyme alone (IDE; peptide 2 μM (FIG. 2c)): did not increase
- IDE activity compared with respective enzyme alone (IDE; peptide 9 μM, significantly less compared with ACE2 and NEP): significantly higher
- IDE activity, concentration dependence (IDE; peptide 0.9-26 μM): increased the activity

Reference: patent US20240002441A1, “PEPTIDES AND USES THEREOF IN MODULATION OF AMYLOID-BETA PROTEIN DEGRADING PROTEASES” (priority 2020, published 2024)
